Results published in patent US10760052B2, “Method of inhibiting tau phosphorylation” (priority 2012, dated 2020).
Where two headings read alike, the source gives them in different places.

Target: T1, mu opiate receptor (MOR) (Rattus norvegicus, UniProt P33535)
T1 construct: from tissue; host or cells: striatum (membrane preparation)
Format: biochemical
Details: for Concentration of FLNA-Binding Compound as Agonist 0.1 μM / Concentration of FLNA-Binding Compound as Agonist 1 μM / Concentration of FLNA-Binding Compound as Agonist 1 μM + BFNA: [35S]GTPγS binding to Gαo in striatal membranes; for Concentration of FLNA-Binding Compound as Agonist 0.1 μM: compound 0.1 μM; for Concentration of FLNA-Binding Compound as Agonist 1 μM: compound 1 μM; for Concentration of FLNA-Binding Compound as Agonist 1 μM + BFNA: compound 1 μM plus 1 μM β-funaltrexamine (MOR antagonist); for MOR agonist activity ([35S]GTPγS binding), compound as agonist: preliminary study, average of two runs

T1 sequence (P33535 whole entry): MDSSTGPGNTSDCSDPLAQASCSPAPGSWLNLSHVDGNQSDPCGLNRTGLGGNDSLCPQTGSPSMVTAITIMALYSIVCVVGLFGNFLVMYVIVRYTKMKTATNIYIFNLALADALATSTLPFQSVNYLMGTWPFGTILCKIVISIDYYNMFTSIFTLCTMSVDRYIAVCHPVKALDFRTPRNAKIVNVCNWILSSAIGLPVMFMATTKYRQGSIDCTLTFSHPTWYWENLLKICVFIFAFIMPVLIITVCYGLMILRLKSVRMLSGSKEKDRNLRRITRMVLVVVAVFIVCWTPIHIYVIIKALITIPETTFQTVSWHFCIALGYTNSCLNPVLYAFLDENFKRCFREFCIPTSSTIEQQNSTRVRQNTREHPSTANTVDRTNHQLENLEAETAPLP

Compound | % DAMGO (0.1 μM) [%] | % DAMGO (1 μM) [%] | % DAMGO + BFNA [%] | Concentration of FLNA-Binding Compound as Agonist 0.1 μM [%] | Concentration of FLNA-Binding Compound as Agonist 1 μM [%] | Concentration of FLNA-Binding Compound as Agonist 1 μM + BFNA [%] | MOR agonist activity ([35S]GTPγS binding), compound as agonist (0.1 μM) [%] | MOR agonist activity ([35S]GTPγS binding), compound as agonist (1 μM + βNFA) [%] | MOR agonist activity ([35S]GTPγS binding), compound as agonist (1 μM) [%] | [35S]GTPγS binding, FLNA-Binding Compound as Agonist at 0.1 μM (0.1 μM compound, striatal membranes, Series C-2) [%] | [35S]GTPγS binding, FLNA-Binding Compound as Agonist at 1 μM + BFNA (1 μM compound + 1 μM β-FNA (selective MOR antagonist), Series C-2) [%] | [35S]GTPγS binding, FLNA-Binding Compound as Agonist at 1 μM (1 μM compound, striatal membranes, Series C-2) [%] | [35S]GTPγS binding, FLNA-Binding Compound as Agonist at 0.1 μM [%] | [35S]GTPγS binding, FLNA-Binding Compound as Agonist at 1 μM [%] | [35S]GTPγS binding, FLNA-Binding Compound as Agonist at 1 μM + BFNA [%]
CS(=O)(=O)c1ccc(S(=O)(=O)N2CCC3(CC2)OCCN3S(=O)(=O)c2ccc(S(C)(=O)=O)cc2)cc1 [Compound C0009] | 85.1 | 92.6 | 41.2 | 146.3 | 256.2 | 26.4 | – | – | – | – | – | – | – | – | –
CC(=O)c1ccc(S(=O)(=O)N2CCC3(CC2)NC(=O)CN3Cc2ccccc2)cc1 [Compound C0085M] | 105.5 | 78.4 | 112.6 | 211.6 | 246.2 | 43.7 | – | – | – | – | – | – | – | – | –
O=C(OCc1ccccc1)c1ccc(S(=O)(=O)N2CCC3(CC2)OCCN3S(=O)(=O)c2ccc(C(=O)OCc3ccccc3)cc2)cc1 [Compound C0042] | 98.9 | 119.2 | 666.3 | 167.1 | 260.9 | 110.6 | – | – | – | – | – | – | – | – | –
Cc1ccc(S(=O)(=O)N2CCOC23CCN(CC2CC2)CC3)cc1 [Compound C0134M] | – | – | – | – | – | – | 150.7 | 53.2 | 224.0 | – | – | – | – | – | –
COc1ccc(C(=O)N2CCC3(CC2)OCCN3C(=O)c2ccc(OC)cc2)cc1 [Compound C0017] | 87.1 | 109.7 | 143.2 | 153.8 | 284.5 | 94.1 | – | – | – | – | – | – | – | – | –
CC1CN(CC(O)COc2cc(F)cc(F)c2)CC(C)O1 (stereo not drawn) [Compound A0046] | 131.2 | 128.3 | 189.4 | 257.5 | 354.1 | 140.0 | – | – | – | – | – | – | – | – | –
COc1c2c(cc3c1C(CC(=O)c1ccc(N4CCOCC4)cc1)[N+](C)(C)CC3)OCO2 (stereo not drawn) [Compound B0004] | 102.8 | 85.8 | 110.8 | 170.3 | 231.7 | 72.0 | – | – | – | – | – | – | – | – | –
COc1ccccc1CC(O)CC1c2c(cc3c(c2OC)OCO3)CCN1C (stereo not drawn) [Compound B0030] | 62.6 | 103.4 | 172.9 | 107.2 | 276.1 | 90.1 | – | – | – | – | – | – | – | – | –
CNc1ccc(S(=O)(=O)N2CCC3(CC2)OCCN3S(=O)(=O)c2ccc(NC)cc2)cc1 [Compound C0024] | 92.8 | 84.1 | 135.1 | 178.4 | 229.6 | 59.3 | – | – | – | – | – | – | – | – | –
CC(=O)c1ccc(S(=O)(=O)N2CCC3(CC2)OC(CN(C)C)CN3S(=O)(=O)c2ccc(C(C)=O)cc2)cc1 (stereo not drawn) [Compound C0065] | 127.0 | 121.3 | 119.5 | 198.3 | 279.5 | 47.7 | – | – | – | – | – | – | – | – | –
COc1c2c(cc3c1C(CC(=O)Cc1ccccc1C)[N+](C)(C)CC3)OCO2 (stereo not drawn) [Compound B0031] | 109.6 | 99.6 | 65.6 | 210.8 | 272.0 | 28.8 | – | – | – | – | – | – | – | – | –
COc1cccc(CC(=O)CC2c3c(cc4c(c3OC)OCO4)CC[N+]2(C)C)c1OC (stereo not drawn) [Compound B0038] | 94.2 | 88.7 | 359.2 | 147.5 | 205.5 | 117.1 | – | – | – | – | – | – | – | – | –
N#Cc1ccc(S(=O)(=O)N2CCC3(CC2)OCCN3S(=O)(=O)c2ccc(C#N)cc2)cc1 [Compound C0008] | 41.4 | 72.9 | 4.4 | 71.2 | 201.6 | 2.8 | – | – | – | – | – | – | – | – | –
COc1c2c(cc3c1C(CC(=O)CCc1ccc(F)cc1)[N+](C)(C)CC3)OCO2 (stereo not drawn) [Compound B0018] | 70.3 | 53.5 | 69.1 | 118.8 | 143.0 | 45.6 | – | – | – | – | – | – | – | – | –
COc1cccc(CCC(=O)CC2c3c(cc4c(c3OC)OCO4)CC[N+]2(C)C)c1 (stereo not drawn) [Compound B0034] | 71.6 | 88.1 | 80.2 | 122.5 | 235.2 | 41.8 | – | – | – | – | – | – | – | – | –
CC1CCC(C(C)C)C(OCC(O)CN2CC(C)OC(C)C2)C1 (stereo not drawn) [Compound A0032-1] | 95.5 | 117.6 | 303.8 | 187.4 | 324.5 | 224.5 | – | – | – | – | – | – | – | – | –
COCOc1ccc(CCC(=O)CC2c3c(cc4c(c3OC)OCO4)CC[N+]2(C)C)cc1 (stereo not drawn) [Compound B0040] | 93.2 | 105.1 | 169.6 | 146.0 | 243.3 | 55.3 | – | – | – | – | – | – | – | – | –
CC1CCC(C(C)C)C(OCC(O)CN2CCN(CCCN3CCOCC3)CC2)C1 (stereo not drawn) [Compound A0026] | 79.7 | 70.7 | 459.3 | 140.7 | 179.8 | 120.8 | – | – | – | – | – | – | – | – | –
COc1ccc(NC(=O)N2CCC3(CC2)NCCO3)cc1 [Compound C0151M-2] | 201.6 | 122.0 | 233.1 | – | – | – | – | – | – | 346.8 | 212.8 | 397.6 | – | – | –
O=S(=O)(c1ccc(C(F)(F)F)cc1Br)N1CCC2(CC1)OCCN2S(=O)(=O)c1ccc(C(F)(F)F)cc1Br [Compound C0071] | 160.5 | 161.7 | 513.3 | 276.3 | 355.3 | 177.1 | – | – | – | – | – | – | – | – | –
COc1ccc(S(=O)(=O)N2CCC3(CC2)OCCN3S(=O)(=O)c2ccc(OC)c(OC)c2)cc1OC [Compound C0049] | 73.5 | 90.1 | 184.1 | 106.6 | 210.0 | 81.0 | – | – | – | – | – | – | – | – | –
CC(=O)c1ccc(S(=O)(=O)N2CC(CN(C)C)OC23CCNCC3)cc1 (stereo not drawn) [Compound C0118M] | 87.8 | 105.4 | 163.3 | – | – | – | – | – | – | – | – | – | 166.2 | 261.5 | 79.2
